Results as given in PubChem BioAssay (NCI).
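Test compounds were applied to cells in 96-well plates for 48 hours at 5 doses. TGI is the concentration that stops growth completely.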

Assays:
Assay in all cases: DTP human tumour cell line panel, 48 h
MCF7 breast = tested on: MCF7 breast
LOX IMVI melanoma = tested on: LOX IMVI melanoma
CCRF-CEM leukemia = tested on: CCRF-CEM leukemia
DU-145 prostate = tested on: DU-145 prostate
UO-31 renal = tested on: UO-31 renal
SF-268 CNS = tested on: SF-268 CNS
A498 renal = tested on: A498 renal
MDA-MB-435 = tested on: MDA-MB-435
SN12C renal = tested on: SN12C renal
SR leukemia = tested on: SR leukemia

Compound	TGI (MCF7 breast) [µM]	TGI (LOX IMVI melanoma) [µM]	TGI (CCRF-CEM leukemia) [µM]	TGI (DU-145 prostate) [µM]	TGI (UO-31 renal) [µM]	TGI (SF-268 CNS) [µM]	TGI (A498 renal) [µM]	TGI (MDA-MB-435) [µM]	TGI (SN12C renal) [µM]	TGI (SR leukemia) [µM]
COc1ccc2c(CCN)c(C(=O)O)[nH]c2c1	> 100	> 100	> 100	> 100	> 100	> 100	> 100	> 100	> 100	> 43.7
CC(=O)OCCOCn1c2c(c(=S)[nH]c1=O)CCC2	> 100	> 100	> 100	> 100	> 100	> 100	–	> 100	> 100	> 100
O=C(c1ccccc1)N1CCN(C(=S)N(C(=O)c2ccccc2)c2ccccc2)C1=S	10	3.67	> 25.8	10.6	6.43	14.7	13.4	12.2	12.2	> 100
CN(CCn1cnc2c1c(=O)n(C)c(=O)n2C)C1CCCCC1	> 100	> 100	> 100	> 100	> 100	> 100	> 100	> 100	> 100	> 100
CCCCC(=O)NS(=NC(=O)c1ccccc1)C(Cl)(Cl)Cl (stereo unspecified)	> 100	> 100	> 100	> 100	> 100	> 100	–	> 100	> 100	> 100
COC(=O)CCC(=O)NC1=C(Nc2ccc(OC)cc2)C(=O)c2ccccc2C1=O	18.8	16.1	> 85.2	26.9	32.1	98.2	33.6	3.53	27.3	> 75.9
CCCSc1ccc2[nH]c(N3C(=O)/C(=C/c4ccco4)N=C3c3ccccc3)cc2c1	> 50	> 50	> 50	> 50	> 50	> 50	> 50	28	> 50	> 50
COC(=O)CCC(=O)NC1=C(NCc2ccccc2)C(=O)c2ccccc2C1=O	58.2	77.2	> 100	> 100	> 100	> 100	> 100	34.9	88.2	> 100
NC(N)=N/N=C/c1nc2n(c1[N+](=O)[O-])CCS2	> 100	92.6	–	88.2	> 100	> 100	> 100	74.1	> 100	88.2
CN(C)CCNC(=O)c1cccc2c(NCCN(C)C)c3ccccc3nc12	12.8	4.75	> 100	28.2	8.29	11.2	4.74	7.58	5.94	3.45
CCSc1sc(=Nc2ccc(N=c3sc(C)c(SC)s3)cc2)sc1-c1ccc(C)cc1	> 100	> 100	> 100	> 100	> 100	> 100	> 100	> 100	> 100	> 100
Cc1[nH]c2c(c1C)S(=O)(=O)c1cc3ccccc3nc1N2	> 100	36.4	45.8	> 100	56.9	> 100	> 100	> 100	36.9	> 100
CCCN(CCCC(NC(C)=O)C(=O)NCc1ccccc1)C(=O)N(CCCl)N=O (stereo unspecified)	> 100	31.5	76.8	> 100	50	42.6	31.1	> 100	> 76.1	17.5
COc1ccc2nc3c([N+](=O)[O-])ccc4c3c(c2c1)NCCN4CCO	3.19	0.792	2	5.34	1.47	6.26	2	1.79	2.34	0.455
COC(=O)NCCc1[nH]nc2c1C(=O)C=C(N1CCOCC1)C2=O	> 100	> 100	> 100	> 100	> 100	> 100	> 100	> 100	> 100	> 100
O=[N+]([O-])C1CC/C(=N/O)c2nonc21 (stereo unspecified)	> 10	–	> 10	> 10	> 10	> 10	> 10	> 10	> 10	> 10
C[C@H](CCC(=O)NCCS(=O)(=O)O)[C@H]1CC[C@H]2[C@@H]3CC[C@@H]4C[C@H](O)CC[C@]4(C)[C@H]3CC[C@]12C	> 100	> 100	> 100	> 100	> 100	> 100	> 100	> 100	> 100	> 100
CCOC(=O)c1ccc(Nc2c3c(nc4ccccc24)CCCC3)cc1	> 100	> 100	> 100	> 100	> 100	> 100	> 92.2	> 100	> 100	> 100
CCCCC(C#N)(OP1(=O)OC(c2ccccc2)C(C)N1C)c1ccccc1 (stereo unspecified)	39	36.7	40.3	43.4	31.4	35.9	33.6	33.2	31.3	43.9
COC(=O)C(Cc1c(C2Nc3ccccc3C2CC(NC(=O)CNC(C)=O)C(=O)OC)[nH]c2ccccc12)NC(=O)CNC(C)=O (stereo unspecified)	> 100	> 100	> 100	> 100	> 100	> 100	> 100	> 100	> 100	> 100
